In brackets after ≈: the same amount, converted by molar mass. Entries after “also recorded” stand apart in the source; their conditions may differ. Like-named read-outs stand apart in the source and are kept apart here.
Assays:
B. subtilis DSM402 [1] = assay: Bacterial cytological profiling (BCP) in B. subtilis DSM402; format: cell-based, Bacillus subtilis
E. coli (W3110) = assay: MIC, microdilution, E. coli W3110; format: cell-based, Escherichia coli; conditions: Escherichia coli
E. coli DNA gyrase = target: T1, E. coli DNA gyrase (Escherichia coli, UniProt P0AES4+P0AES6); assay: In vitro DNA gyrase cleavage assay; format: biochemical
T1 construct: purchased Inspiralis

[2] = test system: cell wall biosynthesis in B. subtilis DSM402; assay: Summary of cell wall synthesis experiments; format: cell-based, Bacillus subtilis
E. coli [3] = test system: E. coli
[4] = test system: PonA in B. subtilis TNVS45; assay: PonA localization; conditions: 1x MIC; 30 min (vancomycin) or 1 h
MreB in B. subtilis MW10 = assay: MreB mobility assay; format: cell-based, Bacillus subtilis; conditions: B. subtilis MW10, 1 h of antibiotic exposure
Experimental: MreB is an actin homologue that forms filamentous structures along the lateral axis of the cell. It moves along the length of the cells in a spiraling pattern thereby driving lateral peptidoglycan synthesis.[36],[37] MreB mobility is sensitive to inhibition of peptidoglycan synthesis and so far, every cell wall synthesis inhibitor we tested abolished MreB movement (see Figure S70 for examples).
Expression of msfGFP-MreB was induced with 0.3% xylose. Pictures were taken after 1 h of antibiotic exposure. Two images of the same field of view were recorded 30 s apart and overlaid in ImageJ to visualize MreB mobility. A perfect overlap (yellow) indicates stalled MreB movement, while distinct red and green foci are indicative of MreB mobility. Scale bar 2 μm.
Fig. S70: MreB motility in B. subtilis MW10 after treatment with different cell wall synthesis inhibitors. Expression of GFP-MreB was induced with 0.3% xylose. Cells were treated with 1x […]
Two images of the same field of view were recorded 30 sec apart and overlaid in ImageJ to visualize MreB mobility. A perfect overlap (yellow) indicates stalled MreB movement while distinct red and green spots are indicative of MreB mobility. Scale bar 2 µm.

[5] = test system: MraY in B. subtilis TNVS284; assay: MraY localization; conditions: 1x MIC; 30 min (vancomycin) or 1 h
[6] = test system: S. aureus (ATCC 43300) MRSA; assay: MIC, microdilution, MRSA ATCC 43300; format: cell-based, Staphylococcus aureus; conditions: Staphylococcus aureus; norfloxacin-resistant strain
[7] = test system: PbpB in B. subtilis EKB46; assay: PbpB localization; conditions: 1x MIC; 30 min (vancomycin) or 1 h
B. subtilis DSM402 [8] = assay: Peptidoglycan integrity assay (acetic acid/methanol fixation); conditions: 1x MIC; 30 min (cell wall inhibitors) or 60 min
E. coli [9] = assay: microbe, parasite or virus in culture; conditions: Escherichia coli, read-out: MICC (MIC of the test compound alone)
E. coli BCB472 = assay: GlpT localization (inner membrane) in E. coli BCB472; conditions: 1x MIC, 1 h; GFP-tagged membrane protein
[10] = test system: K. pneumoniae (ATCC 10031); assay: MIC, K. pneumoniae ATCC 10031; format: cell-based, Klebsiella pneumoniae; conditions: Klebsiella pneumoniae, ATCC10031
E. coli W3110 = assay: Bacterial cytological profiling (BCP) in E. coli W3110; format: cell-based, Escherichia coli
B. subtilis DSM402 [11] = assay: microbe, parasite or virus in culture; conditions: Bacillus subtilis, DSM402, read-out: concentration (MIC against B. subtilis DSM402)
S. aureus (CCUG1800T) = assay: MIC, microdilution, S. aureus CCUG1800T; format: cell-based, Staphylococcus aureus; conditions: Staphylococcus aureus
[12] = test system: MurG in B. subtilis TNVS175; assay: MurG localization; format: cell-based, Bacillus subtilis; conditions: 1x MIC; 30 min (vancomycin) or 1 h;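 further: normal MurG forms small membrane spots and peptidoglycan inhibition gives large clusters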
B. subtilis DSM402 [13] = conditions: Table 2; cells treated with 1x MIC
[14] = test system: norfloxacin-resistant clinical isolate of E. coli; assay: MIC, microdilution, norfloxacin-resistant clinical isolate of E. coli; format: cell-based, Escherichia coli; conditions: Escherichia coli, read-out: MIC E. coli (norfloxacin-resistant strain)
P. aeruginosa (PAO1) = assay: MIC, microdilution, P. aeruginosa PAO1; format: cell-based, Pseudomonas aeruginosa; conditions: Pseudomonas aeruginosa, PAO1
E. faecalis (ATCC 19433) = assay: MIC, E. faecalis ATCC 19433; format: cell-based, Enterococcus faecalis; conditions: Enterococcus faecalis, ATCC19433
E. coli topoisomerase IV = target: T2, E. coli topoisomerase IV (Escherichia coli, UniProt P0AFI2+P20083); assay: In vitro topoisomerase IV cleavage assay; format: biochemical; conditions: read-out: % topoisomerase IV inhibition
T2 construct: purchased Inspiralis

[15] = test system: M. tuberculosis (MC26020); assay: microbe, parasite or virus in culture; format: cell-based, Mycobacterium tuberculosis; conditions: Mycobacterium tuberculosis, read-out: MIC M. tuberculosis (MC26020)
[16] = 1x MIC, 1 h, indicates cell lysis
[17] = interpretation of BCP in B. subtilis
[18] = interpretation of BCP in E. coli

T2 sequence (P0AFI2 whole entry): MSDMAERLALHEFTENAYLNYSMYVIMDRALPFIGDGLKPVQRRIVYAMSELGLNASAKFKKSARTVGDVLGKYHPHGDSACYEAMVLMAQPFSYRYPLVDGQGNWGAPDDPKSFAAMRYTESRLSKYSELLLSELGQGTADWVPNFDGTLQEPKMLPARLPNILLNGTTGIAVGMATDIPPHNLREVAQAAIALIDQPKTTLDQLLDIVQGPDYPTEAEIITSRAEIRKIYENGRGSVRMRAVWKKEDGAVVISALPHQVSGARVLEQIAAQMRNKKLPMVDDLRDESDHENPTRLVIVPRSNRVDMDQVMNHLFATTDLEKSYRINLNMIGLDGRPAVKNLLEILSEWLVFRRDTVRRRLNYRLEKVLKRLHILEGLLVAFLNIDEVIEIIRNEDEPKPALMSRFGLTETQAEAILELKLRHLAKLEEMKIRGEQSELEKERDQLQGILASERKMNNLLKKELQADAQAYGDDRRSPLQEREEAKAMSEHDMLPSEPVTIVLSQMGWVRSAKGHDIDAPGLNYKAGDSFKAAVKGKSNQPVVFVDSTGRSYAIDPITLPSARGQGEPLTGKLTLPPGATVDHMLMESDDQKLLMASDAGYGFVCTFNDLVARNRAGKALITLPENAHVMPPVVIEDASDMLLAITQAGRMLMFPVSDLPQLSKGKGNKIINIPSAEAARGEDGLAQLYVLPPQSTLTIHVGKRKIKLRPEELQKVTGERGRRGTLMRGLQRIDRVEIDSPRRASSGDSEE
T2 sequence (P20083 whole entry): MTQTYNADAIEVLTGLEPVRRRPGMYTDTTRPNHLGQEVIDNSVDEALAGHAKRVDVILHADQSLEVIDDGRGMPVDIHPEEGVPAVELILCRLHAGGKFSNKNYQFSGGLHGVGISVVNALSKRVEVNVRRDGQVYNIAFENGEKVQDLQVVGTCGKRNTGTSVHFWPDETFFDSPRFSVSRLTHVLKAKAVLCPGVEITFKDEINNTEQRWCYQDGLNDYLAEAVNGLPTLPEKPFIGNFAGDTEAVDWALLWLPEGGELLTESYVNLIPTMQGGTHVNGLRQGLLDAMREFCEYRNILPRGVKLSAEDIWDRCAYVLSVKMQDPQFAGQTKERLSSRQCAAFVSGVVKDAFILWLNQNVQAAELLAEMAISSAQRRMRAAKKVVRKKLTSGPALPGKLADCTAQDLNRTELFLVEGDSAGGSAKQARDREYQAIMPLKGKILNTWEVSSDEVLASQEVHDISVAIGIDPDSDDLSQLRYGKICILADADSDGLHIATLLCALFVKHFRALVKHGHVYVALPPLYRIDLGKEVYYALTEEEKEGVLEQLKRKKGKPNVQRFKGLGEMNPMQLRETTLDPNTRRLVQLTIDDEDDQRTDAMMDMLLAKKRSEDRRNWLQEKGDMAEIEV
T1 sequence (P0AES4 whole entry, one chain of several): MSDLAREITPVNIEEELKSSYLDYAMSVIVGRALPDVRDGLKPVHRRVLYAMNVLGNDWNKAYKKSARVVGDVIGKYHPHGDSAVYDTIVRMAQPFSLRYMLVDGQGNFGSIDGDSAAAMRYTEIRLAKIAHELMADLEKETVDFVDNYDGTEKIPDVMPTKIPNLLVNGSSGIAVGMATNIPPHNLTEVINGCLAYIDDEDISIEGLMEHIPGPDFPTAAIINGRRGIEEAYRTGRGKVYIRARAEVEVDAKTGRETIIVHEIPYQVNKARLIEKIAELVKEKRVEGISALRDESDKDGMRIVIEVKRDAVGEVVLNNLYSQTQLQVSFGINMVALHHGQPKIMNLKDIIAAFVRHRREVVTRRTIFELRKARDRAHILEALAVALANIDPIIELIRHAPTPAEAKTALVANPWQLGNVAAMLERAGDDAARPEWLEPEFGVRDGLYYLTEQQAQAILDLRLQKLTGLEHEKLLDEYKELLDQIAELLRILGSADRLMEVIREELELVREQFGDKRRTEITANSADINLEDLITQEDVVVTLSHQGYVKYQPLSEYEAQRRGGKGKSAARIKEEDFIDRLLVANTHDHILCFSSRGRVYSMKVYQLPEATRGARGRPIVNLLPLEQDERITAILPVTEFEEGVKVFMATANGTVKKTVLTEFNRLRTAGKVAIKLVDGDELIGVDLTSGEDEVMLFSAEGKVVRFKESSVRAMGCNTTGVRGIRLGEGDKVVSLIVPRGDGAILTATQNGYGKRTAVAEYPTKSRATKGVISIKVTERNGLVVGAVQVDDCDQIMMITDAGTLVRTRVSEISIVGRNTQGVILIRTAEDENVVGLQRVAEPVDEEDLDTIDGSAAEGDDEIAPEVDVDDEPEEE

Compound: CCn1cc(C(=O)O)c(=O)c2cc(F)c(N3CCN(CNc4ccc([N+](=O)[O-])cc4)CC3)cc21 [compound 21]
- DAPI (B. subtilis DSM402 [1]; 1x MIC, 1 h, DNA condensation): condensed
- phase contrast (B. subtilis DSM402 [1]; [16]): dark
- FM4-64 (B. subtilis DSM402 [1]; 1x MIC, 1 h, membrane stain): smooth
- gyrase inhibition (B. subtilis DSM402 [1]; [17]): yes
- membrane damage (B. subtilis DSM402 [1]; [17]): no
- MIC (E. coli (W3110); read-out: concentration (MIC against E. coli W3110)): 0.266 µM
- MIC (E. coli (W3110); E. coli W3110, converted from 0.266 μM, read-out: MIC): 0.125 µg/mL
- MIC (E. coli (W3110); Gram-negative strain, average of duplicate experiments, read-out: MIC E. coli (W3110)): 0.266 µM
- MIC (E. coli (W3110); Tab. S10, topoisomerase IV side, strain not given, values equal E. coli W3110 of Table 1, read-out: MIC): 0.266 µM
- inhibition at 10 µM (E. coli DNA gyrase): 77.9%
- CWB inhibited? [2]: yes ^b
- FICC (fractional inhibitory concentration of the test compound) (E. coli [3]; MICCcheckerboard/MICC): 0.0039
- Outcome (E. coli [3]; checkerboard with mupirocin): additive (>0.5 to ≤4.0 as additive (no interaction))
- FICM (MICMcheckerboard/MICM) (E. coli [3]; mupirocin alone 64 µg/mL): 1
- FICI (fractional inhibitory concentration index) (E. coli [3]; with mupirocin, FICC+FICM): 1.004
- protein localization PonA [4]: neither compound affected the localization; also recorded: septal
- MreB mobility (MreB in B. subtilis MW10): much smaller clusters and more clusters per cell; also recorded: mobile with static foci
- protein localization MraY [5]: neither compound affected the localization; also recorded: rough
- MIC [6]: 34.1 µM (≈ 16 µg/mL)
- protein localization PbpB [7]: neither compound affected the localization; also recorded: smooth
- PG integrity (B. subtilis DSM402 [8]): came close to the cutoff value; also recorded: Intact
- MIC (E. coli [9]): 0.125 µg/mL
- GlpT (E. coli BCB472): Smooth
- MIC [10]: 4.26 µM (≈ 2 µg/mL)
- DAPI (E. coli W3110; 1x MIC, 1 h, DNA condensation): condensed
- phase contrast (E. coli W3110; [16]): dark
- FM4-64 (E. coli W3110; 1x MIC, 1 h, membrane stain): Smooth
- gyrase inhibition (E. coli W3110; [18]): yes
- membrane damage (E. coli W3110; [18]): no
- MIC (B. subtilis DSM402 [11]): 2.13 µM (≈ 1 µg/mL)
- MIC (S. aureus (CCUG1800T); Tab. S10, DNA gyrase side, strain not given, values equal S. aureus CCUG1800T of Table 1, read-out: MIC): 2.13 µM (≈ 1 µg/mL)
- MIC (S. aureus (CCUG1800T); read-out: MIC S. aureus (CCUG1800T)): 2.13 µM (≈ 1 µg/mL)
- protein localization MurG [12]: only visible in the proximity of the cell poles; also recorded: polar spotty
- μM (concentration used, 1x MIC) (B. subtilis DSM402 [13]): 2.13 µM
- MIC [14]: 17 µM (≈ 8 µg/mL)
- MIC (P. aeruginosa (PAO1)): 2.13 µM (≈ 1 µg/mL)
- MIC (E. faecalis (ATCC 19433)): 2.13 µM (≈ 1 µg/mL)
- inhibition at 10 µM (E. coli topoisomerase IV): 45.5%
- MIC [15]: 6.39 µM (≈ 3 µg/mL)

Reference: paper PMC10739246 (ACS Bio & Med Chem Au, 2023)
